These results are taken from US20240101546A1, “HETEROARYL-ACETYLENES, PHARMACEUTICAL COMPOSITIONS THEREOF, AND THEIR THERAPEUTIC APPLICATIONS” (Eubulus Biotherapeutics Inc., priority 2020, published 2024).

For the first experiment, the system named is hepatocellular carcinoma cell line Hub-7. Kind of experiment: Cell proliferation assay, Hub-7 (CELL-TITER GLO). The experiment is classed as cell-based. To be noted: Hub-7 cells, 24 h incubation, cell viability by CELL-TITER GLO, top concentration 10 μM; read-out: EC50, Inhibition of Hub-7 Cell Proliferation. In short, it runs like this: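 Hub-7 cells, 4,000 per well, seeded overnight, then exposed 24 h to compound from 10 μM top in 3-fold serial dilution. Viability read by CELL-TITER GLO luminescence; EC50 derived and binned into potency categories.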
For `C#Cc1nc(C(=O)NCCc2ccc(-c3cccc4[nH]ncc34)cc2)cs1` [Compound C49, N-(4-(1H-Indazol-4-yl)phenethyl)-2-ethynylthiazole-4-carboxamide], the EC50 is at most 200 nM.

Regarding `C#Cc1nc(C(=O)NCCc2ccc(-c3ccccc3C(=O)NC)cc2)cs1` [Compound C12, 2-Ethynyl-N-(2-(2′-(methylcarbamoyl)-[1,1′-biphenyl]-4-yl)ethyl)thiazole-4-carboxamide], the EC50 lay within 1000 to 5000 nM. Still for that read-out and setting: the figure for `C#Cc1nc(C(=O)NCc2ccc(-c3cscn3)cc2)cs1` [Compound C55, 2-Ethynyl-N-(4-(thiazol-4-yl)benzyl)thiazole-4-carboxamide] is 200 to 1000 nM; for `C#Cc1nc(C(=O)NCc2ccc(NC(C)=O)cc2)cs1` [Compound C89, N-(4-Acetamidobenzyl)-2-ethynylthiazole-4-carboxamide] it is above 5000 nM; for `C#Cc1nc(C(=O)NCc2ccc(-c3cccc4[nH]ncc34)cc2)cs1` [Compound C40, N-(4-(1H-Indazol-4-yl)benzyl)-2-ethynylthiazole-4-carboxamide] it is 1000 to 5000 nM. `C#Cc1nc(C(=O)NCc2ccc3ncsc3c2)cs1` [Compound C66, N-(Benzo[d]thiazol-6-ylmethyl)-2-ethynylthiazole-4-carboxamide]: the EC50 was in the range of 1000 to 5000 nM.

Take `C#Cc1nc(NC(=O)N2CCc3cc(-c4cccc5ncsc45)ccc3C2)cs1` [Compound B3, 6-(Benzo[d]thiazol-7-yl)-N-(2-ethynylthiazol-4-yl)-3,4-dihydroisoquinoline-2(1H)-carboxamide]: the EC50 was 200 to 1000 nM. On the same count and under the same terms, the value for `C#Cc1nc(C(=O)NCc2cccc(Cl)c2)c(C)s1` [Compound C52, N-(3-Chlorobenzyl)-2-ethynyl-5-methylthiazole-4-carboxamide] was 200 to 1000 nM; that for `C#Cc1nc(C(=O)N[C@H]2CCc3ccccc32)cs1` [Compound C71, (S)—N-(2,3-Dihydro-1H-inden-1-yl)-2-ethynylthiazole-4-carboxamide] was 200 to 1000 nM.

Turning to `C#Cc1nc(C(=O)NCCc2ccc(-c3cc(C(=O)NC)cc4ncsc34)cc2)cs1` [Compound C9, 7-(4-(2-(2-Ethynylthiazole-4-carboxamido)ethyl)phenyl)-N-methylbenzo[d]-thiazole-5-carboxamide], the EC50 is 200 to 1000 nM. Consider `C#Cc1nc(C(=O)NCc2ccccc2OC)cs1` [Compound C144, 2-Ethynyl-N-(2-methoxybenzyl)thiazole-4-carboxamide], for which the EC50 was 1000 to 5000 nM.

For `C#Cc1nc(C(=O)NCc2ccc(O)cc2)cs1` [Compound C121, 2-Ethynyl-N-(4-hydroxybenzyl)thiazole-4-carboxamide], the EC50 is 1000 to 5000 nM. As to `C#Cc1nc(C(=O)NCCc2cccc(-c3cccc4[nH]ccc34)c2)cs1` [Compound C36, N-(3-(1H-Indol-4-yl)phenethyl)-2-ethynylthiazole-4-carboxamide], the EC50 fell in the range of 200 to 1000 nM.

Take `C#Cc1nc(C(=O)NCCc2ccc(-c3cccc4cnccc34)cc2)cs1` [Compound C21, 2-Ethynyl-N-(4-(isoquinolin-5-yl)phenethyl)thiazole-4-carboxamide]: the EC50 was at most 200 nM. Same read-out and setting: the figure for `C#Cc1nc(C(=O)NCCc2cccc(-c3cccnc3)c2)cs1` [Compound C38, 2-Ethynyl-N-(3-(pyridin-3-yl)phenethyl)thiazole-4-carboxamide] is 1000 to 5000 nM; for `C#Cc1nc(C(=O)NC[C@@H](O)c2ccccc2)cs1` [Compound C135, (S)-2-Ethynyl-N-(2-hydroxy-2-phenylethyl)thiazole-4-carboxamide] it is 1000 to 5000 nM; for `C#Cc1nc(C(=O)NCCc2ccc(-c3cncc4ncsc34)cc2)cs1` [Compound C19, 2-Ethynyl-N-(4-(thiazolo[4,5-c]pyridin-7-yl)phenethyl)thiazole-4-carboxamide] it is 200 to 1000 nM. For `C#Cc1nc(C(=O)NCCc2cccc(NS(C)(=O)=O)c2)cs1` [Compound C81, 2-Ethynyl-N-(3-(methylsulfonamido)phenethyl)thiazole-4-carboxamide], the EC50 fell in the range of 1000 to 5000 nM. Still for that read-out and setting: the figure for `C#Cc1nc(C(=O)NCc2ncccc2Cl)cs1` [Compound C109, N-((3-Chloropyridin-2-yl)methyl)-2-ethynylthiazole-4-carboxamide] is 1000 to 5000 nM; for `C#Cc1nc(C(=O)NCCc2ccc(-c3cccc4c3ccn4C)cc2)cs1` [Compound C50, 2-Ethynyl-N-(4-(1-methyl-1H-indol-4-yl)phenethyl)thiazole-4-carboxamide] it is at most 200 nM. As for `C#Cc1nc(C(=O)NCCc2ccc([N+](=O)[O-])cc2)cs1` [Compound C129, 2-Ethynyl-N-(4-nitrophenethyl)thiazole-4-carboxamide], the EC50 was at most 200 nM.

Consider `C#Cc1nc(NC(=O)[C@@H](N)Cc2ccccc2C#N)cs1` [Compound E8, (S)-2-Amino-3-(2-cyanophenyl)-N-(2-ethynylthiazol-4-yl)propenamide], for which the EC50 fell in the range of 1000 to 5000 nM.

Regarding `C#Cc1nc(C(=O)NCCc2cccc(N)c2)cs1` [Compound C85, N-(3-Aminophenethyl)-2-ethynylthiazole-4-carboxamide], the EC50 fell in the range of 1000 to 5000 nM.

As to `C#Cc1nc(C(=O)Nc2cccc3[nH]ncc23)cs1` [Compound C130, 2-Ethynyl-N-(1H-indazol-4-yl)thiazole-4-carboxamide], the EC50 lay in the range of 1000 to 5000 nM. Same read-out and setting: the value for `C#Cc1nc(NC(=O)NCc2ccc(-c3cccc4ncsc34)cc2)cs1` [Compound A6, 1-(4-(benzo[d]thiazol-7-yl)benzyl)-3-(2-ethynylthiazol-4-yl)urea] was at most 200 nM; that for `C#Cc1nc(C(=O)NCc2cccc3ccccc23)cs1` [Compound C113, 2-Ethynyl-N-(naphthalen-1-ylmethyl)thiazole-4-carboxamide] was at most 200 nM. For the compound `C#Cc1nc(NC(=O)N2CCN(c3ccc(-c4cccc5ncsc45)cc3)CC2)cs1` [Compound B5, 4-(4-(Benzo[d]thiazol-7-yl)phenyl)-N-(2-ethynylthiazol-4-yl)piperazine-1-carboxamide], the EC50 was at most 200 nM.

In the case of `C#Cc1nc(C(=O)NC2CCN(c3ccccc3)CC2)cs1` [Compound C78, 2-Ethynyl-N-(1-phenylpiperidin-4-yl)thiazole-4-carboxamide], the EC50 was in the range of 200 to 1000 nM. For the compound `C#Cc1nc(NC(=O)[C@H](N)Cc2ccccc2C#N)cs1` [Compound E5, (R)-2-Amino-3-(2-cyanophenyl)-N-(2-ethynylthiazol-4-yl)propenamide], the EC50 was at most 200 nM.

`C#Cc1nc(C(=O)NCCc2ccc(-c3ccn(C)n3)cc2)cs1` [Compound C41, 2-Ethynyl-N-(4-(1-methyl-1H-pyrazol-3-yl)phenethyl)thiazole-4-carboxamide]: the EC50 was 1000 to 5000 nM. With `C#Cc1nc(C(=O)NCc2ccccc2-c2ccccc2)cs1` [Compound C112, N-([1,1′-Biphenyl]-2-ylmethyl)-2-ethynylthiazole-4-carboxamide], the EC50 was in the range of 200 to 1000 nM. Still for that read-out and setting: the value for `C#Cc1nc(C(=O)NCCc2ccc(-c3cccc4nn(C)cc34)cc2)cs1` [Compound C32, 2-Ethynyl-N-(4-(2-methyl-2H-indazol-4-yl)phenethyl)thiazole-4-carboxamide] was 200 to 1000 nM.

In another experiment the test system is lung cancer cell line NCI-H82. Description: Cell proliferation assay, NCI-H82 (CELL-TITER GLO). The experiment is classed as cell-based. Particulars: Homo sapiens, NCI-H82, 72 h, NCI-H82 cells, 72 h incubation, cell viability by CELL-TITER GLO, top concentration 1 μM; read-out: EC50, Inhibition of NCl-H82 Cell Proliferation. The protocol: The activity of a compound was determined in a cell proliferation assay using the lung cancer cell line NCI-H82. Cells (1,000 cells per well) were cultured with RPMI1640 in a 384-well tissue culture plate. After incubated overnight, the compound was added at predetermined concentrations, starting with 1 μM and followed by a 3-fold serial dilution. After the cells were incubated for 72 h, cell viability was determined using a CELL-TITER GLO assay. The CELL-TITER GLO reagent (25 μL) was added to each well and the luminescence was measured by a multimode microplate reader after a brief period of shaking. EC50 values were determined for the compound. The results are summarized in Table 1, wherein A represents a value no greater than 200 nM, B represents a value greater than 200 nM but no greater than 1 μM, C represents a value greater than 1 μM but no greater than […], and D represents a value greater than 5 μM.
In the case of `C#Cc1nc(NC(=O)N[C@@H](CO)c2ccc(N3CCCC(F)(F)C3)cn2)cs1` [Compound A136, (R)-1-(1-(5-(3,3-Difluoropiperidin-1-yl)pyridin-2-yl)-2-hydroxyethyl)-3-(2-ethynylthiazol-4-yl)urea], the EC50 is at most 200 nM.

Turning to `C#Cc1nc(NC(=O)N[C@H](CO)C(=O)N2CCC(c3ccccc3C#N)CC2)cs1` [Compound A146, (R)-1-(1-(4-(2-Cyanophenyl)piperidin-1-yl)-3-hydroxy-1-oxopropan-2-yl)-3-(2-ethynylthiazol-4-yl)urea], the EC50 lay within 200 to 1000 nM. In the case of `C#Cc1nnc(NC(=O)N[C@@H](CO)c2ccc(-c3cccnc3C3(C#N)CC3)c(Cl)c2)s1` [Compound A71, (R)-1-(1-(3-Chloro-4-(2-(1-cyanocyclopropyl)pyridin-3-yl)phenyl)-2-hydroxy-ethyl)-3-(5-ethynyl-1,3,4-thiadiazol-2-yl)urea], the EC50 is at most 200 nM.

As to `C#Cc1nc(NC(=O)N[C@@H](COC(N)=O)c2ccc(-c3cccnc3C3(C#N)CC3)c(Cl)c2)cs1` [Compound A69, (R)-2-(3-Chloro-4-(2-(1-cyanocyclopropyl)pyridin-3-yl)phenyl)-2-(3-(2-ethynyl-thiazol-4-yl)ureido)ethyl carbamate], the EC50 was at most 200 nM. On to `C#Cc1nc(NC(=O)N[C@@H](COC(N)=O)c2ccc(C3=CCCc4c3cnn4C)cc2)cs1` [Compound A233, (R)-2-(3-(2-Ethynylthiazol-4-yl)ureido)-2-(4-(1-methyl-6,7-dihydro-1H-indazol-4-yl)phenyl)ethyl carbamate], for which the EC50 was at most 200 nM. `C#Cc1nc(NC(=O)NCc2ccc(N3CCC[C@@H]3C#N)cc2)cs1` [Compound A33, (R)-1-(4-(2-Cyanopyrrolidin-1-yl)benzyl)-3-(2-ethynylthiazol-4-yl)urea]: the EC50 was at most 200 nM. Turning to `C#Cc1nc(NC(=O)N2CCN(c3ccc(-c4cccc5ncsc45)cc3)C[C@@H]2CO)cs1` [Compound B24, (R)-4-(4-(Benzo[d]thiazol-7-yl)phenyl)-N-(2-ethynylthiazol-4-yl)-2-(hydroxy-methyl)piperazine-1-carboxamide], the EC50 is at most 200 nM.
